Test results reported in patent publication EP0781282B1, “[1,2,4]TRIAZOLO[4,3-a]QUINOXALINONE DERIVATIVES, THEIR PREPARATION AND USE” (NOVO NORDISK A/S, priority 1994, dated 1996).

Key:
[1] = test system: quisqualic acid stimulated spreading depression in chicken retina; test: Spreading depression in chicken retina (Test 2); settings: 50% maximal inhibition of spreading depression; quisqualate 1 µg/ml, chick retina, 26°C
Protocol: The antagonism is measured by determining the IC50 value which represents the concentration which produces a 50% maximal inhibition of quisqualic acid stimulated spreading depression in chicken retina.
Spreading depression (Test 2)
Chicks (3-10 days old) were decapitated, the eyes enucleated and sectioned along the equatorial plane. After removal of the anterior chamber and the vitreous body, the posterior chamber of each eye was placed in a small petri dish containing a physiological saline solution (P.S.S.) of the following composition (mM) NaCI (100), KCI (6.0), CaCl2 (1.0), MgSO4 (1.0), NaHCO3 (30), NaH2PO4 (1.0), glucose (20).
The solution was saturated with 100% O2 and maintained at a temperature of 26°C.
The eyes were initially incubated in normal P.S.S. for 15-30 min. and then transferred to P.S.S. containing quisqualate (1 µg/ml). […] The time taken for an S.D. to start in each eye was measured.
After a further 15 min. of incubation in normal P.S.S. the eyes were transferred to normal P.S.S. containing the test compound and incubated for 15 min. […] The time taken for an S.D. to start in each eye was measured again. The eyes were then placed back in normal P.S.S. and after 15 min. the time taken for S.D. to start was measured again, in order to assess the degree of recovery from any drug effects. […]

[2] = molecular target: AMPA receptors; test: 3H-AMPA binding (Test 1); settings: displacement of 50% of specific 3H-AMPA binding (5 nM); rat cerebral cortical membrane homogenate, 0°C, 30 min
Protocol: The displacement activity of the compounds may be shown by determining the IC50 value which represents the concentration (µM) which causes a displacement of 50% of the specific binding of ^3H-AMPA.
^3H-AMPA binding (Test 1)
500 µl of thawed rat cerebral cortical membrane homogenate in Tris-HCI (30 mM), CaCl2 (2.5 mM) and KSCN (100 mM) pH 7.1 were incubated at 0°C for 30 min. with 25 µl ^3H-AMPA (5 nM final concentration) and the test compound and buffer. Nonspecific binding was determined by incubation with L-glutamic acid (600 µM final concentration). The binding reaction was terminated by adding 5 ml of ice-cold buffer followed by filtration through Whatman GF/C glass fibre filters and 2x5 ml wash with ice-cold buffer. Bound radioactivity was measured by scintillation counting. IC50 was determined by Hill analysis of at least four concentrations of test compound.

## CCOP(=O)(O)Cc1nnc2c(=O)[nH]c3cc(C(F)(F)F)c(-n4ccnc4)cc3n12 [Example 1, 1-(Ethoxy-hydroxy-phosphorylmethyl)-8-(1H-imidazol-1-yl)-7-trifluoromethyl[1,2,4]triazolo[4,3-a]quinoxalin-4(5H)-one]
[1]
  IC50: 1310 nM
[2]
  IC50: 240 nM
